Our source for the IC50 and inhibition values is ChEMBL document CHEMBL5120922, “Discovery, Optimization, and Evaluation of Potent and Selective PI3Kδ-γ Dual Inhibitors for the Treatment of B-cell Malignancies” (J Med Chem, 2022).

For test [1], the system named is DOHH-2. The test is described as follows: Antiproliferative activity against human DOHH-2 cells assessed as cell growth inhibition measured after 72 hrs by MTT assay. As to conditions: DOHH-2, 72 h. Type of test: functional, cell-based. On the technique in general: Tetrazolium dyes change colour on reduction, which living cells bring about.
The target in test [2] is T1, Phosphatidylinositol 4,5-bisphosphate 3-kinase catalytic subunit gamma isoform (Homo sapiens, UniProt P48736). Kind of test: Inhibition of N-terminal His6-tagged recombinant full length human PI3Kgamma expressed in baculovirus infected Sf21 insect cells at 1 uM by HTRF assay relative to control.
T1 sequence (P48736 whole entry, looked up, canonical isoform): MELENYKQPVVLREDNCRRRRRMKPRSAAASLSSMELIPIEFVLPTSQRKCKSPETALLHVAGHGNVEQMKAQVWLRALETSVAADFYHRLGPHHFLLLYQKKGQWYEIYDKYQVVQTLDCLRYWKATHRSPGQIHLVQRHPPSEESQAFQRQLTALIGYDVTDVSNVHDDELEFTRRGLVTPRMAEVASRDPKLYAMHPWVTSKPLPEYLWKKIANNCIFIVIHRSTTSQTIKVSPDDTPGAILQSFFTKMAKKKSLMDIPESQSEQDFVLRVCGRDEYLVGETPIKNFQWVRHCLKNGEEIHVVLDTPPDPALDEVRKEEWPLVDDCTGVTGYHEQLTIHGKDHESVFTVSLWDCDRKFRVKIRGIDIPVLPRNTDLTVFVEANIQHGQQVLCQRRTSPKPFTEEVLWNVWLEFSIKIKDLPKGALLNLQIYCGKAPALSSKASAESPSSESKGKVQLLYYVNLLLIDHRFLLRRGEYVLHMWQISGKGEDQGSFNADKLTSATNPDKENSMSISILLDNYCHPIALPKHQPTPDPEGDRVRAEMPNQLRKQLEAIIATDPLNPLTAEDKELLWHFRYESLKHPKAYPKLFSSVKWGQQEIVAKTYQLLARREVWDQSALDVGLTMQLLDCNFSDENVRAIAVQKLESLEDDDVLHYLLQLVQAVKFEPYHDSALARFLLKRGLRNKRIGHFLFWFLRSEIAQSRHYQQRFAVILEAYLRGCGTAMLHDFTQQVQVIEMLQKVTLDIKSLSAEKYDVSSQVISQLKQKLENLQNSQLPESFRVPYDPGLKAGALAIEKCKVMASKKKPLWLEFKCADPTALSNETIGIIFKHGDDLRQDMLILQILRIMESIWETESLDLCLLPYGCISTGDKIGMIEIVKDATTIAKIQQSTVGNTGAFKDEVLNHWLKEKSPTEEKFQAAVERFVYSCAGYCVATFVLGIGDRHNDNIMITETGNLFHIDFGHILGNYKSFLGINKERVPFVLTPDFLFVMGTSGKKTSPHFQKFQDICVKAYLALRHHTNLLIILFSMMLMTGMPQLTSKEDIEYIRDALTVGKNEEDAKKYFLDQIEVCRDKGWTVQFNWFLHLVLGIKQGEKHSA
The target in test [3] is T2, Phosphatidylinositol 4,5-bisphosphate 3-kinase catalytic subunit delta isoform (Homo sapiens) (UniProt O00329).
T2 sequence (whole entry): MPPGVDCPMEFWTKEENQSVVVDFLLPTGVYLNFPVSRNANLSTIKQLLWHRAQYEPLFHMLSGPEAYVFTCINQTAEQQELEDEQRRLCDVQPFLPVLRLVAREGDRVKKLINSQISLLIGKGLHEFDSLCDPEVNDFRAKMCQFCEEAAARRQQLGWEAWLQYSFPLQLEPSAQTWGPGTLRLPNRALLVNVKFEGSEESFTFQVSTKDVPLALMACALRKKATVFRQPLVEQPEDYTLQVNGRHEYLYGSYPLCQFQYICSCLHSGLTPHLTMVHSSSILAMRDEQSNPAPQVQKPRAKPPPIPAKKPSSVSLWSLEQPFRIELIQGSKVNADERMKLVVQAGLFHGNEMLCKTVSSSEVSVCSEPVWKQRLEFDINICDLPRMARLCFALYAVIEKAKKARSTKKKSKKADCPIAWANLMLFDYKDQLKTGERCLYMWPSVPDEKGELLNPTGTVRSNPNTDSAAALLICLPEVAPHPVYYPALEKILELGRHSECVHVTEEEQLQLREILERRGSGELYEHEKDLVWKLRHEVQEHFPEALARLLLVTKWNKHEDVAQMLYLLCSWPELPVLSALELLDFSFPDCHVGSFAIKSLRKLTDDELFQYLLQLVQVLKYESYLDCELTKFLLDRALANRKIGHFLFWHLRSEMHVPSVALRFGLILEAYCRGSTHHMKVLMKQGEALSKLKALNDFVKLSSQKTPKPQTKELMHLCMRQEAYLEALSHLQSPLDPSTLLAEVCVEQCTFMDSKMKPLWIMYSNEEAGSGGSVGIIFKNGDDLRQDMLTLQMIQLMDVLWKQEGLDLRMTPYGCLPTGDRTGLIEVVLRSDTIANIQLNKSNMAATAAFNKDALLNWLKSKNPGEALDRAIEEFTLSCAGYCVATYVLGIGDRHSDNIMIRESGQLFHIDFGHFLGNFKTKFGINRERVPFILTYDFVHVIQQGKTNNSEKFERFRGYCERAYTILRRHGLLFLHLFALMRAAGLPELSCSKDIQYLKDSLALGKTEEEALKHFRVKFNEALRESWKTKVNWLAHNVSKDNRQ
The test is described as follows: Inhibition of N-terminal His6-tagged recombinant full length human PI3Kdelta expressed in baculovirus infected Sf21 insect cells at 1 uM by HTRF assay relative to control. (In general: In TR-FRET formats the signal depends on donor and acceptor labels being close together.)

The target in test [4] is Phosphatidylinositol 4,5-bisphosphate 3-kinase catalytic subunit beta isoform (Homo sapiens, UniProt P42338). The test is described as follows: Inhibition of N-terminal His6-tagged recombinant full length human PI3Kbeta expressed in baculovirus infected Sf21 insect cells at 1 uM by HTRF assay relative to control.
Chain of Phosphatidylinositol 4,5-bisphosphate 3-kinase catalytic subunit beta isoform (P42338 whole entry, looked up, canonical isoform): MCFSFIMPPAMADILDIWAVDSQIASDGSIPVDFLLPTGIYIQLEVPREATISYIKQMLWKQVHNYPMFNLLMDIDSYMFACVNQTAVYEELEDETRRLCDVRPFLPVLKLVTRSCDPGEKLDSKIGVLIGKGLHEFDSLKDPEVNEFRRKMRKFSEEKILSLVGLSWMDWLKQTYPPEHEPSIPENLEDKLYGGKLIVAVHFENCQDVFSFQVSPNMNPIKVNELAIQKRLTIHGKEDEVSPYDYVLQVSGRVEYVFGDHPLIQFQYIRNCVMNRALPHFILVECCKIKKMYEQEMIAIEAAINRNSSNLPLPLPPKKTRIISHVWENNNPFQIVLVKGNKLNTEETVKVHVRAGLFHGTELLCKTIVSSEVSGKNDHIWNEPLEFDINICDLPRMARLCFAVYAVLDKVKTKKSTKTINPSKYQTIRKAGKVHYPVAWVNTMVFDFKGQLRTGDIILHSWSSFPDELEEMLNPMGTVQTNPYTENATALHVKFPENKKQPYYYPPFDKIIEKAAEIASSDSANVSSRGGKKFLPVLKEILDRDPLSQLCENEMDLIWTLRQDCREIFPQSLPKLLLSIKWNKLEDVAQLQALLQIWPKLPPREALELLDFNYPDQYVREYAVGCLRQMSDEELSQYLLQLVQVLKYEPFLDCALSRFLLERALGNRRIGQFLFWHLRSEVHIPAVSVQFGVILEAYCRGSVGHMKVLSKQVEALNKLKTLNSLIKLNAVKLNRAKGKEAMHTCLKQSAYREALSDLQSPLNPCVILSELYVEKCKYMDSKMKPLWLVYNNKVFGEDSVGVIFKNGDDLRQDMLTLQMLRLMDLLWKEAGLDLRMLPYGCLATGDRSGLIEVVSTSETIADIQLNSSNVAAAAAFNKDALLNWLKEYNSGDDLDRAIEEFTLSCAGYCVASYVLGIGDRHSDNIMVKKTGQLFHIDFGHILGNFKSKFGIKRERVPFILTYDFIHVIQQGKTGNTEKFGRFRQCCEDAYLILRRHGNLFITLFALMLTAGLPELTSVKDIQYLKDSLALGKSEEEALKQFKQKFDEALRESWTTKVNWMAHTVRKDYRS
Test [5] relates to SU-DHL-6. The test is described as follows: Antiproliferative activity against human SU-DHL-6 cells assessed as cell growth inhibition measured after 72 hrs by MTT assay. Type of test: functional, cell-based. As to conditions: SU-DHL-6, 72 h.
Test [6] relates to SUD4. The test is described as follows: Antiproliferative activity against human SU-DHL-4 cells assessed as cell growth inhibition measured after 72 hrs by MTT assay. It is filed as functional, cell-based. Conditions: SU-DHL-4, 72 h.
Test [7] deals with T1, Phosphatidylinositol 4,5-bisphosphate 3-kinase catalytic subunit gamma isoform. The test is described as follows: Inhibition of N-terminal His6-tagged recombinant full length human PI3Kgamma expressed in baculovirus infected Sf21 insect cells at 0.1 uM by HTRF assay relative to control.
Test [8] concerns the target T2, Phosphatidylinositol 4,5-bisphosphate 3-kinase catalytic subunit delta isoform (Homo sapiens). Kind of test: Inhibition of N-terminal His6-tagged recombinant full length human PI3Kdelta expressed in baculovirus infected Sf21 insect cells at 0.1 uM by HTRF assay relative to control.
The target of test [9] is Phosphatidylinositol 4,5-bisphosphate 3-kinase catalytic subunit alpha isoform (Homo sapiens, UniProt P42336). The test is described as follows: Inhibition of N-terminal His6-tagged recombinant full length human PI3Kalpha expressed in baculovirus infected Sf21 insect cells at 1 uM by HTRF assay relative to control.
Chain of Phosphatidylinositol 4,5-bisphosphate 3-kinase catalytic subunit alpha isoform (P42336 whole entry, canonical isoform): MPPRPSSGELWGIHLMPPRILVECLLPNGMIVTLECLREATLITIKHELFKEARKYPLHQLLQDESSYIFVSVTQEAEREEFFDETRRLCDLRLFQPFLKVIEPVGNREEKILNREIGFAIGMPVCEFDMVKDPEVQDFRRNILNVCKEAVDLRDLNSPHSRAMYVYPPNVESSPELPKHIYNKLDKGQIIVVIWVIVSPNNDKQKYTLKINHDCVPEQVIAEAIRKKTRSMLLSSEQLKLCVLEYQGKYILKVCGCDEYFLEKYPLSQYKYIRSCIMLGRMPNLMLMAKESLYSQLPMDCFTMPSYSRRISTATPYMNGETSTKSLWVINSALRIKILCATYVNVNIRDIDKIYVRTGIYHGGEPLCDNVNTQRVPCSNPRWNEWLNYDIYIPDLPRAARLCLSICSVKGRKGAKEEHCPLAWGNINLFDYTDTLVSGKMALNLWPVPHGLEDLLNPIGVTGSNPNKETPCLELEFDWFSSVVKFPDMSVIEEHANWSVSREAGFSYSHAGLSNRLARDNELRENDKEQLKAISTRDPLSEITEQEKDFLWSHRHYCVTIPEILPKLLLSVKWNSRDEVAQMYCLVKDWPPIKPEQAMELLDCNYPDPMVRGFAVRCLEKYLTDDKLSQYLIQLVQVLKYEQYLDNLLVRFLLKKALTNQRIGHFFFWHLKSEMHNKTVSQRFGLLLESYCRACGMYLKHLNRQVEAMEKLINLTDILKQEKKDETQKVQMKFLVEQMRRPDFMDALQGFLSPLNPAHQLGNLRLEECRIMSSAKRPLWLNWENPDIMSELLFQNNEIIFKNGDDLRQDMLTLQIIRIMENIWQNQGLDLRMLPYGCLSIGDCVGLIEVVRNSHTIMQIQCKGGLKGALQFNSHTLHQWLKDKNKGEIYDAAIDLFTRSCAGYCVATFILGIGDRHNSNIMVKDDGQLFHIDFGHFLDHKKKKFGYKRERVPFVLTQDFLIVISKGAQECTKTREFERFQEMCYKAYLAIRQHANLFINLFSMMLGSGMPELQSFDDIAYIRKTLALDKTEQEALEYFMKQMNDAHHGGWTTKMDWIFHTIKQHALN

Broadly, the IC50 is the concentration that gives 50% inhibition. What is called inhibition is the drop in the measured response relative to a control, in per cent. With `C[C@H]1CC[C@@H](c2nc3cccc(Cl)c3c(=O)n2-c2ccccc2)N1c1ccnc(N)n1`, the IC50 came to 3.97 µM in test [1], 1.84 µM in test [5] and 1.2 µM in [6]. Also, the inhibition in [2] came out at 100%; in test [3], 11%; in test [4], 106%; in test [7] it was 99%; in [8], 88%; in [9], 78%.

In the case of `C[C@H]1CC[C@@H](c2nc3cccc(Cl)c3c(=O)n2-c2cccnc2)N1c1nc(N)nc2[nH]cnc12`, the IC50 in test [1] was 0.65 µM; in test [5] it was 0.41 µM; in test [6], 0.51 µM. Besides, the inhibition in [2] came to 0%; in test [3], 7%; in test [4] it was 54%; in test [7], 39%; in test [8], 15%; in test [9], 89%.

Take `C[C@H]1CC[C@@H](c2nc3cccc(Cl)c3c(=O)n2-c2cc(F)cc(F)c2)N1c1nc(N)nc(N)c1C#N`: the IC50 came out at 1.17 µM in [1], 0.58 µM in test [5] and 0.36 µM in [6]. For the same compound, the inhibition was -8% in [2]; 1% in [3]; 43% in test [4]; 14% in test [7]; 4% in test [8]; 66% in test [9].

With `C[C@H]1CC[C@@H](c2nc3cccc(Cl)c3c(=O)n2N2CCOCC2)N1c1nc(N)nc(N)c1C#N`, the IC50 in test [1] is 0.37 µM; in [5], 0.31 µM; in test [6], 0.2 µM. Also, the inhibition in test [2] stood at 0%; in test [3] it was 11%; in [4], 33%; in test [7], 10%; in [8] it was 10%; in test [9] it was 72%.

As for `N#Cc1c(N)nc(N)nc1N1[C@H](c2nc3cccc(Cl)c3c(=O)n2-c2cc(F)cc(F)c2)C[C@@H]2CCCC[C@@H]21`, the values for the concentration for half-maximal inhibition (IC50) in test [1], in test [5] and in [6] were 3.54 µM, 2.75 µM and 1.83 µM, respectively. Further, the inhibition in [2] was 49%; in [3], 18%; in test [4] it was 84%; in test [7], 85%; in test [8], 34%; in test [9], 79%.

For `C[C@H]1CC[C@@H](c2nc3cccc(Cl)c3c(=O)n2N2CCOCC2)N1c1nc(N)nc2[nH]cnc12`, the IC50 in test [1] was 1.44 µM; in test [5], 0.42 µM; in [6], 0.6 µM. Besides, the inhibition is -2% in test [2]; 5% in test [3]; 53% in [4]; 45% in test [7]; 81% in [8]; 91% in [9].

Turning to `C[C@H]1CC[C@@H](c2nc3cccc(Cl)c3c(=O)n2-c2ccccc2)N1c1nc(F)nc2[nH]cnc12`, the IC50 in test [1] was determined as 0.91 µM; in [5], 0.49 µM; in test [6], 0.73 µM. Also, the inhibition in [2] was 34%; in test [3], 13%; in test [4], -1%; in test [7], 76%; in test [8], 27%; in test [9], 49%.

As for `C[C@H]1CC[C@@H](c2nc3cccc(Cl)c3c(=O)n2-c2ccccc2)N1c1nc(N)nc2[nH]ccc12`, the IC50 amounted to 3.59 µM in test [1], 1.8 µM in test [5] and 4.93 µM in test [6]. Moreover, the inhibition in test [2] is 41%; in test [3], 37%; in test [4], 84%; in [7] it was 88%; in [8] it was 74%; in test [9], 82%.

As to `C[C@H]1CC[C@@H](c2nc3cccc(F)c3c(=O)n2-c2cccnc2)N1c1nc(N)nc(N)c1C#N`, the IC50 in test [1] amounted to 0.56 µM; in test [5], 0.4 µM; in test [6], 0.12 µM. Also, the inhibition in test [4] is 36%; in test [7] it was 67%; in test [8], 7%; in [9] it was 44%.

On to `Cc1ccc(C#Cc2cccc3nc([C@@H]4CC[C@H](C)N4c4nc(N)nc(N)c4C#N)n(-c4ccccc4)c(=O)c23)cc1`, for which the IC50 in test [1] stood at 0.68 µM; in test [5] it was 1.72 µM; in [6] it was 1.23 µM. Moreover, the inhibition in test [4] worked out at 78%; in [7], 80%; in [8] it was 56%; in [9], 35%.

On to `N#Cc1c(N)nc(N)nc1N1[C@H](c2nc3cccc(F)c3c(=O)n2-c2cc(F)cc(F)c2)C[C@@H]2CCCC[C@@H]21`, for which the values for the 50% inhibitory concentration (IC50) in test [1], in test [5] and in test [6] were 2.47 µM, 1.48 µM and 1.45 µM, respectively. The inhibition turned out to be 75% in test [2]; 23% in test [3]; 98% in test [4]; 93% in test [7]; 82% in test [8]; 84% in test [9].

Regarding `C[C@H]1CC[C@@H](c2nc3cccc(C#Cc4ccccn4)c3c(=O)n2-c2ccccc2)N1c1nc(N)nc(N)c1C#N`, the IC50 in test [1] was 0.79 µM; in test [5], 0.6 µM; in [6] it was 0.32 µM. Further, the inhibition was found to be 41% in test [4], 29% in [7], 6% in test [8] and 11% in test [9].

Take `Cc1cc(N2[C@@H](C)CC[C@H]2c2nc3cccc(Cl)c3c(=O)n2-c2ccccc2)nc(N)n1`: the IC50 worked out at 1.96 µM in test [1], 1.53 µM in test [5] and 1.12 µM in [6]. For the same compound, the inhibition turned out to be 96% in test [2]; 75% in test [3]; 105% in test [4]; 99% in [7]; 93% in [8]; 96% in test [9].

For the compound `C[C@H]1CC[C@@H](c2nc3cccc(Cl)c3c(=O)n2-c2cccc(F)c2)N1c1nc(N)nc2[nH]cnc12`, the IC50 worked out at 2.61 µM in test [1], 0.48 µM in test [5] and 0.35 µM in test [6]. Moreover, the inhibition was -4% in [3]; 57% in test [4]; 1% in [7]; 5% in test [8]; 58% in test [9].

Consider `C[C@H]1CC[C@@H](c2nc3cccc(Cl)c3c(=O)n2-c2ccccc2)N1c1cc(Cl)nc(N)n1`, for which the values for the IC50 in [1], in test [5] and in [6] were 2.92 µM, 3.15 µM and 2.9 µM, respectively. Besides, the inhibition in [2] was 96%; in [3], 23%; in test [4], 92%; in test [7], 97%; in test [8], 76%; in [9], 88%.

As for `C[C@H]1CC[C@@H](c2nc3cccc(Cl)c3c(=O)n2-c2cc(F)cc(F)c2)N1c1nc(N)nc2[nH]cnc12`, the IC50 was found to be 2.21 µM in [1], 0.84 µM in test [5] and 0.77 µM in [6]. Also, the inhibition came to 2% in test [2]; 7% in test [3]; 68% in test [4]; 51% in test [7]; 12% in test [8]; 90% in test [9].
